Molecules are shown by their SMILES. Like-named read-outs stand apart in the source and are kept apart here.

The conditions of data set [1]: comparison Dy complexes; cited from earlier work.
For data set [2] the following is noted: cited from earlier work.
A further data set deals with mouse pancreas. In words: In vivo MR imaging of glucose stimulated insulin secretion (GSIS) in the mouse pancreas. The conditions noted are these: over the first 10-15 min after injection; 0.07 mmol/kg i.v., glucose IP. Also on record: species or system C57B1/6 mice. An excerpt:
Both phases of insulin secretion are considered essential, but the early RRP phase that is thought to be the first signal reduced during the development of type 2 diabetes (Komatsu et al., 2013; Hosker et al., 1989). In principle, both phases of insulin secretion should be detectable by MRI if enough sensor is present in the extracellular space during the time-course of these events. Biphasic GSIS was not detected by MRI in previous experiments using the first generation Zn^2+ sensors with a high affinity for Zn^2+ but we hypothesized that GSIS may be more easily detected using these second-generation agents having a much lower affinity for Zn^2+. To test this, dynamic MRI scans were collected after administering either GdL1, GdL2, GdL3 or GdL4 to C57B1/6 mice via a tail vein (0.07 mmol/kg). Nearly simultaneously with agent injection, a bolus (50 μL) of 20% w/v glucose was administered IP to stimulate secretion of insulin.
All animal experiments were performed in accordance with guidelines set by the UT Southwestern Institutional Animal Care and Use Committee (IACUC). Male C57b1/6 mice were fasted for at least 12 hours before imaging experiments. The animals were anaesthetized with isofluorane and catheterized via the tail vein. Once the animals were secured inside a 38 mm volume coil, the pancreas was positioned in the center of the 9.4 T Varian MRI scanner. Two 3D T1-weighted gradient echo pre-injection scans were obtained (TE/TR=1.69/3.34 ms, NEX8, Matrix=128×128 ×128). 70 μl of 20 mM contrast agent were injected i.v. and 50 μl of 20% w/v D-glucose were injected intraperitoneally and consecutive 3D T1-weighted scans were obtained sequentially to monitor signal enhancement in the pancreas. Identification of the pancreas was accomplished by locating the tissues surrounded by the spleen, stomach, and kidneys. A total of 3 animals were scanned per group and images were quantified and analyzed using ImageJ (National Institutes of Health, Bethesda, Md.). The signal intensities from ROIs of the tip of the pancreas were measured before, at every ˜3-4 minutes post D-glucose injection over 30 minutes total. The values were normalized to the signal intensity obtained from a water phantom placed on the mouse abdomen. Contrast enhancement was calculated using the formula
[formula] Statistical analysis was performed by comparing the mean values using a two-tailed t-test. Statistical difference was evaluated using t-scores and p-values at a 95 and 99% confidence level.

Data set [3] is described as follows: Kinetic inertness (transmetalation by Zn(II) in phosphate buffer). The note with it: four equivalents of Zn^2+ in phosphate buffer (pH=7), 310 K. It is filed as physicochemical. An excerpt: Shortly after the first confirmed clinical cases of nephrogenic systemic fibrosis (NSF), increased efforts have been made to design agents with high thermodynamic stability and kinetic inertness (Kallen et al., 2008; Reilly, 2008; Rofsky et al., 2008; Wiginton et al., 2008; Abujuden et al., 2009). The sensors shown here are very stable macrocyclic DO3A-monoamide derivatives with reported log KML>20. However, given that the agents reported here also have a high affinity for Zn^2+ ions, and Zn^2+ has been implicated as the major competing ion for transmetalation of Gd^3+ agents derived from linear polyamine ligands, the kinetic rate of Gd^3+ release is arguably the most critical factor in determining in vivo toxicity (Laurent et al., 2010). Using a previously published method (Laurent et al., 2010) consisting of incubating each agent with four equivalents of Zn^2+ in phosphate buffer (pH=7), we compared the kinetic stability of the agents reported here with the FDA-approved agent Magnevist® (GdDTPA, cf. FIG. 7).
Kinetic inertness was determined according to published procedures with minor modifications (Laurent et al., 2010; Silverio et al., 2009). Stock solutions of phosphate buffer (67 mM, pH=7.4), Gd(III) chelates (10 mM) and ZnCl2 (231 mM) were prepared first. Calculated volumes of stock solutions or water were pipetted into small glass vials to obtain a test solution of 300 μL with 30 mM phosphate, 1.5 mM Gd(III) chelate, and 6.0 mM Zn(II). Samples were measured 15 minutes after the sample temperature stabilized at 310 K. During the entire experiment, the samples inside the NMR tubes were kept in an incubator at 310 K. The T1 of the solutions was determined at 310 K and 0.47 T (20 MHz) at various time points within 7 days. As a reference, GdDTPA was analyzed under the same conditions. The R1^P relaxation rate is obtained by subtracting the diamagnetic contribution of the water relaxation (0.28 s-1) from the observed relaxation rate R1=(1/T1).

For a further data set, the target named is T1, HSA (Homo sapiens, UniProt P02768).
T1 construct: purchased Sigma-Aldrich
T1 sequence (P02768 25-609): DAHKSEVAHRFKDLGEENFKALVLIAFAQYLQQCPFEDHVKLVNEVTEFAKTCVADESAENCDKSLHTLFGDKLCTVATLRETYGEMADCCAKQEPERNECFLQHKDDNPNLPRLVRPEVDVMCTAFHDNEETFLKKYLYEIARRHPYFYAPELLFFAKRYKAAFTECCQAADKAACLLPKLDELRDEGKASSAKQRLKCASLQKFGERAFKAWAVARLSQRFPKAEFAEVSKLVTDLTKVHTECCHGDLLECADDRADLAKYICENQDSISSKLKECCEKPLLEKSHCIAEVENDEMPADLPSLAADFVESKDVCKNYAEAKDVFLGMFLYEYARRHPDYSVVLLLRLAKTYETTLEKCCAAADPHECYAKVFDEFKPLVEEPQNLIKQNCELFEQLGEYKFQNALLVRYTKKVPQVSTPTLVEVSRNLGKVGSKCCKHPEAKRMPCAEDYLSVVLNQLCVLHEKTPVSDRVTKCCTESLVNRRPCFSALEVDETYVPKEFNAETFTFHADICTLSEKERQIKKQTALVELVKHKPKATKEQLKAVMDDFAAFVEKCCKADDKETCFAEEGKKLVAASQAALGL
The note with it: used in fitting; read-out: KD for dansylglycine (HSA); cited from earlier work.

Where [4] appears, read: Measured at 25° C., Powell et al., 1994, 1996.

In the case of `O=C([O-])CNC(=O)CN1CCN(CC(=O)NCC(=O)[O-])CCN(CC(=O)NCC(=O)[O-])CCN(CC(=O)NCC(=O)[O-])CC1.[Dy+3]` [Dy DOTA-(gly)4], in data set [1], the “1/T2m^298” value is on record as 1000 10^4 s^−1, the A1 was −50 10^6rad s^−1K T^−1, the A2 is 0 10^9rad s^−1K^2 T^−1 and the ER is -12 kcal/mol. Besides, in data set [1], the “kex^298” value is listed as 0.09 10^6 s^−1 and the “ΔH^‡” value is 12.7 kcal/mol.
Consider `O=C([O-])CN1CCN(CC(=O)[O-])CCN(CC(=O)[O-])CCN(CC(=O)[O-])CC1.[Dy+3]` [DyDOTA], for which, in data set [1], the “1/T2m^298” value is 20 10^4 s^−1, the A1 is −50 10^6rad s^−1K T^−1, the A2 is given as 0 10^9rad s^−1K^2 T^−1 and the ER was -21.5 kcal/mol. Further, in data set [1], the “kex^298” value is 70 10^6 s^−1 and the “ΔH^‡” value was 21.5 kcal/mol.
As to `O=C([O-])CN1CCN(CC(=O)[O-])CCN(CC(=O)[O-])CCN(CC(=O)[O-])CC1.[Gd+3]` [GdDOTA], in data set [2] (setting [4]), the “hyperfine coupling constant (AO/ℏ)” value is given as −3.7 ×10^6 rad/s and the “water exchange rate kex” value is 4.1e+06 s⁻¹. Also, in data set [2] (reference complexes), the ER is 3.85 kcal/mol, the EV was 0.239 kcal/mol, the “ΔH‡” value was 11.9 kcal/mol and the “Δ^2” value is given as 0.16 10^20 s^−2. Further, in data set [2] (reference complexes), the “τRO^298” value is 77 ps and the “τV^298” value is listed as 11 ps.
For the molecule `CC(O)CN1CCN(CC(=O)[O-])CCN(CC(=O)[O-])CCN(CC(=O)[O-])CC1.[Gd+3]` (centres unmarked) [GdHPDO3A, reference compound], the “T1-weighted MR image enhancement in pancreatic tissues and kidneys” value in the data set with mouse pancreas is recorded as “significant image enhancements”.
Take `CNC[C@H](O)[C@@H](O)[C@H](O)[C@H](O)CO.CNC[C@H](O)[C@@H](O)[C@H](O)[C@H](O)CO.O=C([O-])CN(CCN(CC(=O)[O-])CC(=O)O)CCN(CC(=O)[O-])CC(=O)O.[Gd+3]` [Magnevist, reference compound]: the “kinetic stability against transmetalation” value in data set [3] is “some transmetalation”.
Consider `CN(C)c1cccc2c(S(=O)(=O)NCC(=O)O)cccc12` [dansylglycine], for which the Kd at HSA is 2500 nM.

By Kd is commonly meant the constant that tells how readily two partners part at equilibrium.

These data come from patent US11713305B2, “Zinc sensors for in vivo imaging of beta-cell function by MRI” (The Board of Regents of the University of Texas System, priority 2017, dated 2023).
